From patent US20230357447A1, “TUMOR ACTIVATED MULTISPECIFIC ANTIBODIES FOR TARGETING CD28 AND PD-L1 AND METHODS OF USE THEREOF” (Janux Therapeutics, Inc., priority 2022, published 2023)

These substances were tested on anti-CD28 scFv (assay: Phage binding ELISA (panning) of clonal phage on anti-CD28 scFv, with or without CD28 soluble protein). Conditions: clonal phage supernatant; background signal.
Description: Clonal phage were harvested as crude supernatants and screened via standard enzyme linked immunosorbent assays (ELISAs). […] Prior to the addition of clonal phage, wells were incubated with blocking buffer and CD28 soluble protein or blocking buffer alone. Without washing or aspirating, clonal phage supernatants were then added to the wells and incubated for a short time. Wells were then washed followed by detection of bound phage using a horse radish peroxidase conjugated anti-M13 antibody. Clonal phage of interest were then sent for sequence analysis.

| Substance | Phage binding ELISA Backgroud signal |
| --- | --- |
| Phage-372 (MDWCPRYLWVDCFA) | 0.095 |
| Phage-166 (MDWCPRHLWDLCFA) | 0.061 |
| Phage-318 (MDWCPMFLWDECFN) | 0.132 |
| Phage-453 (MDWCPSDYWYVCFA) | 0.065 |
| Phage-315 (MDWCPTYLWHVCFS) | 0.089 |
| Phage-176 (MDWCPSDLWHECFH) | 0.075 |
| Phage-334 (MDWCPRYLWDECFS) | 0.069 |
| Phage-375 (MNWCPRALWHECFL) | 0.085 |
| Phage-41 (MAWCPRDKWSECFS) | 0.062 |
| Phage-377 (MDWCPFDLWLECFN) | 0.087 |
| Phage-370 (MTWCPAYLWHECFN) | 0.086 |
| Phage-284 (MDWCPRFLWHVCFS) | 2.091 |
| Phage-362 (MDWCPRILWHECFS) | 0.064 |
| Phage-344 (MDWCPRHLWVHCFS) | 0.096 |
| Phage-235 (MDWCPRYLWHECFS) | 0.063 |
| Phage-366 (MHWCPLYLWDECFY) | 0.153 |
| Phage-255 (MDWCPRHLWSVCFN) | 0.064 |
| Phage-373 (MDWCPRILWSDCFN) | 0.082 |
| Phage-216 (MDWCPMNMWYQCFN) | 0.110 |

| Substance | Phage binding ELISA Backgroud signal |
| --- | --- |
| Phage-299 (MDWCPIYLWAECFN) | 0.078 |
| Phage-274 (WVSCLRHHWLECFH) | 0.781 |
| Phage-246 (MDWCPKHLWNKCFN) | 0.075 |
| Phage-324 (MDWCPRHLWYECFS) | 0.216 |
| Phage-225 (MDWCPRDRWADCFF) | 0.069 |
| Phage-219 (NYWCPSSMWNRCLH) | 0.295 |
| Phage-180 (MHWCPRYLWDECFN) | 0.132 |
| Phage-257 (MDWCPRFLWHECFN) | 0.079 |
| Phage-70 (ITWCPSSMWNRCFI) | 0.065 |
| Phage-203 (MSWCPRDMWFYCYA) | 0.065 |
| Phage-212 (MDWCPRAMWDKCFF) | 0.073 |
| Phage-53 (MDWCPMHLWNKCFN) | 0.071 |
| Phage-230 (APWCQIISGLECLT) | 0.080 |
| Phage-240 (MDWCPRTLWHVCFN) | 0.317 |
| Phage-350 (MDWCPWFLWNECFN) | 0.158 |
| Phage-351 (MDWCPMNLWHECFA) | 0.080 |
| Phage-231 (VPWCLIISGLDCLN) | 0.455 |
| Phage-190 (MDWCPRDMWAECFF) | 0.099 |
| Phage-277 (MDWCPRSHWSECFS) | 0.080 |

| Substance | Phage binding ELISA Backgroud signal |
| --- | --- |
| Phage-205 (MDWCPTDMWHHCFL) | 0.061 |
| Phage-290 (MDWCPRDLWSVCFS) | 0.090 |
| Phage-218 (TFGCPTTMWNRCFA) | 0.117 |
| Phage-327 (MHWCPRDLWHVCFN) | 0.071 |
| Phage-303 (MDWCPRYLWTECFS) | 0.074 |
| Phage-170 (MNWCPSDLWHLCFN) | 0.071 |
| Phage-245 (MDWCPRNLWHLCFA) | 0.082 |
| Phage-238 (MDWCPPYLWSECFA) | 0.539 |
| Phage-162 (MNWCPTDLWHECFN) | 0.087 |
| Phage-85 (MDWCPMDLWYQCFN) | 0.063 |
| Phage-323 (MDWCPTYLWNVCFA) | 0.085 |
| Phage-184 (MHWCPINLWNECFS) | 0.081 |
| Phage-233 (MTWCPTSFWNRCLD) | 0.142 |
| Phage-226 (MDWCPRDRWIDCFN) | 0.218 |
| Phage-228 (ITWCHVISGLECWN) | 0.076 |
| Phage-317 (MDWCPRHLWHECFT) | 0.103 |
| Phage-179 (MDWCPWILWNECFN) | 0.141 |
| Phage-292 (MDWCPRALWDHCFF) | 0.081 |
| Phage-42 (MDWCPRHLWVHCFN) | 0.071 |
